Data reported in ChEMBL document CHEMBL4311969, “Polygala tenuifolia-Acori tatarinowii herbal pair as an inspiration for substituted cinnamic α-asaronol esters: Design, synthesis, anticonvulsant activity, and inhibition of lactate dehydrogenase study” (Eur J Med Chem, 2019).
pEC50: −log10 of the molar value. “And” between values parts separate entries of the source, which are not always exact repeats. Equal values may be shown once. The source made the active and inactive calls. No cut-off for these calls is given here.

Experiments:
[1] = target: GABA-A receptor; alpha-1/beta-2/gamma-2 (Homo sapiens) (UniProt P14867+P47870+P18507); assay: Agonist activity at GABA alpha1beta2gamma2 receptor in human HEK293T at 3.3 to 300 uM at -50 mV holding potential by whole cell voltage clamp assay relative to control; assay type: protein-complex assay
[2] = species on record: Homo sapiens; assay: Inhibition of human LDH1 at 0.5 mM using sodium pyruvate as substrate by UV-VIS spectrophotometry method relative to control
[3] = system: Mus musculus; assay: Anticonvulsant activity in Kunming mouse assessed as MES-induced hind limb extension at 100 mg/kg, ip administered 0. 5 to 2 hrs before MES stimulation; assay type: functional, organism-based
[4] = species on record: Homo sapiens; assay: Inhibition of human LDH1 at 2 mM using sodium pyruvate as substrate by UV-VIS spectrophotometry method relative to control
[5] = species on record: Homo sapiens; assay: Inhibition of human LDH5 at 0.5 mM using sodium pyruvate as substrate by UV-VIS spectrophotometry method relative to control
[6] = target: T1, GABA-A receptor; alpha-1/beta-2/gamma-2 (Homo sapiens, UniProt P14867+P18507+P47870); assay: Agonist activity at GABA alpha1beta2gamma2 receptor in human HEK293T at -50 mV holding potential by whole cell voltage clamp assay; assay type: protein-complex assay
T1 sequence (P14867 whole entry): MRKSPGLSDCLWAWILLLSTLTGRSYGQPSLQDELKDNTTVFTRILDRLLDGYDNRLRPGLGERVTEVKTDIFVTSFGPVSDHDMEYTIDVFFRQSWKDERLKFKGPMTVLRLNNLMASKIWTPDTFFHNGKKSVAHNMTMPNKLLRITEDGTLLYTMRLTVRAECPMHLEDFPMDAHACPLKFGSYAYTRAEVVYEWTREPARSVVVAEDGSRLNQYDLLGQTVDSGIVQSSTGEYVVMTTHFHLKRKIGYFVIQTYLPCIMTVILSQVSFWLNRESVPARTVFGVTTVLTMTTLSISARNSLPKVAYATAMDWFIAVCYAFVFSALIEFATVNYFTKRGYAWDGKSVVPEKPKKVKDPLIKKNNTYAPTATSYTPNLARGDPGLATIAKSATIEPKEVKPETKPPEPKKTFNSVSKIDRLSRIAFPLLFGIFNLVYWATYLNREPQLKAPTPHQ
T1 sequence (P47870 whole entry): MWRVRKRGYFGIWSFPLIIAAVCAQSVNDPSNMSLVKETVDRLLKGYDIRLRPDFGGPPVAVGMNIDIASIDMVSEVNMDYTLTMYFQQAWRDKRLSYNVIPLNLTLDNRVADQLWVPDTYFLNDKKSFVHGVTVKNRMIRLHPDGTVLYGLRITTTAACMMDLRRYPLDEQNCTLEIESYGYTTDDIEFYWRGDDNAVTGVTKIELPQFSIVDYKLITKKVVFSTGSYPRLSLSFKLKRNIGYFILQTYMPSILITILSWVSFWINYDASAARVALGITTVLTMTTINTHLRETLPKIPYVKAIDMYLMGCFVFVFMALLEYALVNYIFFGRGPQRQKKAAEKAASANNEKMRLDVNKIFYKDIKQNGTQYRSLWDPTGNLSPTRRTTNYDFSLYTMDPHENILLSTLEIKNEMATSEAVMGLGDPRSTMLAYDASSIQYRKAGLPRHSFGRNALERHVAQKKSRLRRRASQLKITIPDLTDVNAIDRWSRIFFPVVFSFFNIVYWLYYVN
T1 sequence (P18507 whole entry): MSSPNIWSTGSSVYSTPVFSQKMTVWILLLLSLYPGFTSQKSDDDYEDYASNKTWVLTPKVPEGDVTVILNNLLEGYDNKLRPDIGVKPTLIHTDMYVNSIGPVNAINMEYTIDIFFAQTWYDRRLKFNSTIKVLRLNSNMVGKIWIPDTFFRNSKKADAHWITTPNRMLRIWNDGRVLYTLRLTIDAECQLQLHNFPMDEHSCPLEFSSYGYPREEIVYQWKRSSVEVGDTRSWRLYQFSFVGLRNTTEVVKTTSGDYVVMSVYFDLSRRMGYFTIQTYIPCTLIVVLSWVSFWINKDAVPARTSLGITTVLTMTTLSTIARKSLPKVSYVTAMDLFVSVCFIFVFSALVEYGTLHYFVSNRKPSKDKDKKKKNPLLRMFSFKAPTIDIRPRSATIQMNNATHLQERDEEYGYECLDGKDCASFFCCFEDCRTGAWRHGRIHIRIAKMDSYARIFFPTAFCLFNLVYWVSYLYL

[7] = Neurotoxicity against Kunming mouse assessed as time remained in rod at 100 mg/kg, ip administered 0.5 to 2 hrs by rotarod test; assay type: toxicity, organism-based; settings: in vivo
[8] = species on record: Homo sapiens; assay: Inhibition of human LDH5 at 2 mM using sodium pyruvate as substrate by UV-VIS spectrophotometry method relative to control
[9] = system: Mus musculus; assay: Anticonvulsant activity in Kunming mouse assessed as MES-induced hind limb extension at 100 mg/kg, ip administered 0. 5 to 4 hrs before MES stimulation relative to control; assay type: functional
[10] = system: Mus musculus; assay: Anticonvulsant activity in Kunming mouse assessed as reduction in Sc3-MP-induced seizure ip dosed measured at 0.5 hrs before Sc3-MP stimulation; assay type: functional
[11] = system: Mus musculus; assay: Anticonvulsant activity in Kunming mouse assessed as MES-induced hind limb extension at 100 mg/kg, ip administered 3 hrs before MES stimulation; assay type: functional, organism-based
[12] = system: Mus musculus; assay: […] activity in ip dosed Kunming mouse assessed as reduction in formalin-induced paw licking administered 0.5 hrs before formalin stimulation; assay type: functional
[13] = system: Mus musculus; assay: Anticonvulsant activity in Kunming mouse assessed as reduction in ScPTZ-induced seizure at 300 mg/kg, ip administered 0.25 to 2 hrs before ScPTZ stimulation relative to control; assay type: functional; parameters: scale not given: the % may be the effect or the level left
[14] = Neurotoxicity against ip dosed Kunming mouse assessed as time remained in rod measured at 0.5 hrs by rotarod test; assay type: toxicity, organism-based; settings: in vivo
[15] = system: Mus musculus; assay: Anticonvulsant activity in Kunming mouse assessed as reduction in Sc3-MP-induced tonic seizure rate at 300 mg/kg, ip administered 0.5 hrs before Sc3-MP stimulation relative to control; assay type: functional; parameters: scale not given: the % may be the effect or the level left
[16] = system: Mus musculus; assay: Anticonvulsant activity in ip dosed Kunming mouse assessed as MES-induced hind limb extension administered 0.5 hrs before MES stimulation; assay type: functional
[17] = Protective index, ratio of TD50 for neurotoxicity against ip dosed Kunming mouse assessed as time remained in rod measured at 0.5 hrs by rotarod test to ED50 for anticonvulsant activity in ip dosed Kunming mouse assessed as MES-induced hind limb extension administered 0.5 hrs; assay type: toxicity, organism-based; settings: in vivo, read-out: PI
[18] = system: Mus musculus; assay: Anticonvulsant activity in Kunming mouse assessed as reduction in Sc3-MP-induced clonic seizure rate at 300 mg/kg, ip administered 0.5 hrs before Sc3-MP stimulation relative to control; assay type: functional; parameters: scale not given: the % may be the effect or the level left
[19] = system: Mus musculus; assay: Anticonvulsant activity in Kunming mouse assessed as reduction in ScPTZ-induced clonic seizure at 300 mg/kg, ip administered 0.5 hrs before ScPTZ stimulation relative to control; assay type: functional; parameters: scale not given: the % may be the effect or the level left
[20] = system: Mus musculus; assay: Anticonvulsant activity in Kunming mouse assessed as reduction in ScPTZ-induced tonic seizure rate at 300 mg/kg, ip administered 0.5 hrs before ScPTZ stimulation relative to control; assay type: functional; parameters: scale not given: the % may be the effect or the level left
[21] = system: Mus musculus; assay: Anticonvulsant activity in Kunming mouse assessed as reduction in ScPTZ-induced seizure at 100 mg/kg, ip administered 1 hr relative to control; assay type: functional; parameters: scale not given: the % may be the effect or the level left
[22] = (§1) Protective index, ratio of TD50 for neurotoxicity against ip dosed Kunming mouse assessed as time remained in rod measured at 0.5 hrs by rotarod test to ED50 for anticonvulsant activity in ip dosed Kunming mouse assessed as reduction in ScPTZ-induced seizure administered 0.5 hrs before ScPTZ stimulation; assay type: toxicity, organism-based; settings: in vivo, read-out: PI
[23] = as §1, with “formalin-induced paw licking” for “ScPTZ-induced seizure”, “formalin” for “ScPTZ”; assay type: toxicity, organism-based; settings: in vivo, read-out: PI
[24] = as §1, with “Sc3-MP-induced” for “ScPTZ-induced”, “Sc3-MP” for “ScPTZ”; assay type: toxicity, organism-based; settings: in vivo, read-out: PI
[25] = system: Mus musculus; assay: Anticonvulsant activity in Kunming mouse assessed as reduction in ScPTZ-induced tonic seizure rate at 100 mg/kg, ip administered 0.5 hrs before ScPTZ stimulation relative to control; assay type: functional; parameters: scale not given: the % may be the effect or the level left
[26] = system: Mus musculus; assay: Anticonvulsant activity in Kunming mouse assessed as reduction in ScPTZ-induced clonic seizure at 100 mg/kg, ip administered 0.5 hrs before ScPTZ stimulation relative to control; assay type: functional; parameters: scale not given: the % may be the effect or the level left
[27] = system: Mus musculus; assay: Anticonvulsant activity in Kunming mouse assessed as reduction in Sc3-MP-induced seizure at 300 mg/kg, ip administered 0.25 to 2 hrs before Sc3-MP stimulation relative to control; assay type: functional; parameters: scale not given: the % may be the effect or the level left
[28] = system: Mus musculus; assay: Anticonvulsant activity in Kunming mouse assessed as reduction in ScPTZ-induced seizure at 100 mg/kg, ip administered 0.5 hrs before ScPTZ stimulation relative to control; assay type: functional; parameters: scale not given: the % may be the effect or the level left
[29] = system: Mus musculus; assay: Anticonvulsant activity in Kunming mouse assessed as reduction in ScPTZ-induced seizure at 100 mg/kg, ip administered 0.25 to 2 hrs before ScPTZ stimulation relative to control; assay type: functional
[30] = system: Mus musculus; assay: Anticonvulsant activity in Kunming mouse assessed as MES-induced hind limb extension at 50 mg/kg, ip administered 0.5 to 4 hrs before MES stimulation relative to control; assay type: functional
[31] = system: Mus musculus; assay: Anticonvulsant activity in ip dosed Kunming mouse assessed as reduction in ScPTZ-induced seizure administered 0.5 hrs before ScPTZ stimulation; assay type: functional
[32] = system: Mus musculus; assay: Anticonvulsant activity in Kunming mouse assessed as MES-induced hind limb extension at 50 mg/kg, ip administered 0.5 and 2 hrs before MES stimulation relative to control; assay type: functional

SMILES	inhibition [2]	Activity [3]	inhibition [5]	Activity [7]	Activity [9]	ED50 [10]	ED50 [12]	Activity [13] [%]	TD50 at 0.5 h [14]	Activity [15] [%]	ED50 [16]	selectivity ratio at 0.5 h [17]	Activity [18] [%]	Activity [19] [%]	Activity [20] [%]	selectivity ratio at 0.5 h [22]	selectivity ratio at 0.5 h [23]	selectivity ratio at 0.5 h [24]	Activity [25] [%]	Activity [26] [%]	also measured
CC(C)(C)C(O)/C=C/c1ccc2c(c1)OCO2 (configuration not stated) [STIRIPENTOL]	inactive	Active	inactive	Non-Toxic	–	–	–	–	–	–	–	–	–	–	–	–	–	–	–	–	%max [1]: 310%; inhibition [4]: 7 to 10%; pEC50 [6]: 4.34; inhibition [8]: 7 to 10%
COc1ccc(/C=C/C(=O)OC/C=C/c2cc(OC)c(OC)cc2OC)cc1	inactive	Active	inactive	Non-Toxic	25 - 100%	> 300 mg/kg and > 780 µmol/kg	122 mg/kg and 317 µmol/kg	50	> 1000 mg/kg and > 2600 µmol/kg	100	70.6 mg/kg and 184 µmol/kg	> 14.2	100	100	0	> 4.1	> 8.2	3.3	100	100	Activity [11]: Active; Activity [21]: 75%; Activity [27]: 0%; Activity [28]: 100%; Activity [29]: inactive; Activity [30]: 50%; ED50 [31]: 244 mg/kg and 634 µmol/kg
COc1cc(OC)c(OC)cc1/C=C/COC(=O)/C=C/c1cc(OC)c(OC)cc1OC	–	Active	–	Non-Toxic	25 - 100%	> 300 mg/kg and > 675 µmol/kg	180 to 225 µmol/kg	50	> 2250 µmol/kg and > 1000 mg/kg	75	165 µmol/kg and 73.5 mg/kg	> 13.6	100	100	25	5	12.5	3.3	100	100	Activity [32]: inactive; Activity [27]: 0%; Activity [29]: inactive; ED50 [31]: > 200 mg/kg and 450 µmol/kg to 675 µmol/kg
